Source: US6010478A, “Trans-mucosal particle delivery” (PowderJect Research Limited, priority 1995, dated 2000)
Where a name gives a salt, the structure may show the parent alone. Read-outs that look alike come from different tables or passages of the source.

Legend:
[1] = Serum testosterone pharmacokinetics after transmucosal (OralJect needleless syringe) or subcutaneous delivery; assay type: in vivo, female New Zealand White rabbit; conditions: for Cmax: 2 mg
Protocol: Testosterone (Sigma Chemicals) was milled and sieved into a particle size range (approximately 50-100 μm) suitable for transmucosal delivery from a needleless syringe using standard stainless steel mesh sieves. Female New Zealand White rabbit subjects weighing between 2.2-2.8 kg were used and allowed food and water ad libitum. The rabbits (n=8) were randomly assigned to one of two treatment groups. The first treatment group received testosterone (2.0 mg dose) as a suspension in 35% polyvinylpyrrolidone C-30 in water (6 mg/g testosterone concentration) via subcutaneous injection. The second treatment group received testosterone (2.0 mg dose of testosterone particles ranging from 53-75 μm) as two 1.0 mg transmucosal administrations from an OralJect™ needleless syringe device abutted against the cheek mucosa.
Whole blood (1.0 ml) was taken at times 0, 0.5, 1, 2, 4, 6, 8, 12, 24 and 48 hours, the serum aspirated and assayed for testosterone by radioimmunoassay (DPC). The OralJect™ device is a prototype device of the present invention that is actuated by helium at 40 bar.

oral mucosa [2] = experiment: Local anaesthesia: pain response to probing of treated oral mucosa, visual analogue scale; assay type: in vivo, human; conditions: 3.0 mg particles by needleless syringe
Protocol: A randomized, double-blind study was then carried out as follows. Treatments were given to 14 subjects over the course of three visits. The treatments provided to the subjects in each visit were either a single 3.0 mg dose of Lignocaine HCL particles from the above-described needleless syringe device, or 0.0 mg (as a blinded negative control). Accordingly, treatments provided over the course of the three visits were either: two actual (3.0 mg) doses of the anaesthetic particles and one placebo; or two placebos and one actual (3.0 mg) dose. Pain stimulus was provided by probing oral mucosa with the back of a 27G dental needle, wherein the probe sequence was a probe on an untreated area of the mucosa, and then a probe on the treated area of the mucosa 1 minute post delivery. Again, the pain associated with the probe of the untreated and treated areas was scored on visual analogue scales using the above scoring methods immediately after each probe.

oral mucosa [3] = system: oral mucosa; design: species or system human; conditions: in vivo
Protocol: In a second study, a single 3.0 mg dose of lignocaine HCL particles (as above) was delivered using a needleless syringe, and a single 0.2 mL dose of 2% lignocaine HCL was delivered via needle-syringe injection. Pain associated with the administration of each treatment was scored in all 14 subjects using a 100 mm visual analogue scale immediately after each treatment, wherein 100% indicates a painful treatment, and 0% indicates a pain-free treatment. The needleless syringe employed in the study was operated using 40 bar helium driving gas to expel anaesthetic particles from a flexible, eversible dome-shaped membrane comprised of a 400 μm, 6 mm polyurethane film.

oral mucosa [4] = experiment: Visual assessment of delivery sites for damage or irritation of mucosal tissues; assay type: in vivo, human; conditions: 3 mg particles 38-53 μm, needleless syringe, 24-48 hours after delivery, 14 subjects
Protocol: A randomized, double-blind, negatively controlled study was carried out in normal, healthy human subjects as follows. Initially, a single 3 mg dose of lignocaine HCL particles sized between 38 and 53 μm was delivered from a needleless syringe constructed in accordance with the invention. The lignocaine was delivered to the oral mucosa adjacent to the number 12 and 22 lateral incisors in 14 trial subjects. The delivery sites were then visually assessed for evidence of damage or irritation to the mucosal tissues.

C[C@]12CC[C@H]3[C@@H](CCC4=CC(=O)CC[C@@]43C)[C@@H]1CC[C@@H]2O [testosterone]
Cmax comparison between treatments ([1]; OralJect transmucosal vs subcutaneous, 2.0 mg, rabbit): not significantly different between treatments although there was a tendency for it to be lower following OralJect™ administration
pharmacokinetic profile, transmucosal vs subcutaneous ([1]; OralJect transmucosal vs subcutaneous, rabbit): markedly different from that achieved following subcutaneous administration
% BA (% bioavailability) ([1]; OralJect transmucosal, 2.0 mg, rabbit): ~48.3%
time of second minor peak of serum testosterone ([1]; OralJect transmucosal, post administration, possible depot effect): 12 h
Cmax ([1]; rabbit, serum, OralJect transmucosal (cheek mucosa), 2 x 1.0 mg particles 53-75 μm, helium 40 bar, rabbit, read-out: Cmax (mean maximum serum concentration)): 25.5 ± 3.5 nM
Cmax ([1]; rabbit, serum, sc, subcutaneous injection, 2.0 mg suspension in 35% polyvinylpyrrolidone C-30 in water, rabbit, read-out: Cmax (mean maximum serum concentration)): 34.8 ± 6.9 nM
Cmax ([1]; rabbit, serum, sc, subcutaneous injection, 2.0 mg, rabbit, read-out: Cmax range): 26.9 to 55.2 nM
Tmax ([1]; rabbit, serum, OralJect transmucosal, 2.0 mg, in all animals): 30 min

CCN(CC)CC(=O)Nc1c(C)cccc1C [lignocaine HCL, lignocaine hydrochloride]
level of local anaesthesia relative to placebo treatments (oral mucosa [2]; 1 minute post delivery): superior level of local anaesthesia relative to the placebo treatments
pain response score to probe of treated area (mean VAS) (oral mucosa [2]; probe 1 minute post delivery, untreated probe 55.6%, placebo 30.6%): 15.0%
pain associated with administration (mean VAS score) (oral mucosa [3]): 49.9%
tissue reaction at delivery site (oral mucosa [4]): no evidence of any tissue reaction was observed
